According to publication PMC10148158, “Mechanism and linkage specificities of the dual retaining β-Kdo glycosyltransferase modules of KpsC from bacterial capsule biosynthesis” (The Journal of Biological Chemistry, 2023):

Molecular target: T1, KpsC-NEc (E. coli KpsC^2-323) (Escherichia coli, UniProt A0A0H2Z2W8)
T1 construct: N-terminal GT module, residues 2-323, His6-tag kept, expressed in E. coli BL21(DE3)
Test: LC-MS of intact protein
Format: biochemical
Settings: covalent; Kdo on Asp160; CMP-Kdo made in situ by KdsB; no acceptor

T1 sequence (A0A0H2Z2W8 entry or part of it): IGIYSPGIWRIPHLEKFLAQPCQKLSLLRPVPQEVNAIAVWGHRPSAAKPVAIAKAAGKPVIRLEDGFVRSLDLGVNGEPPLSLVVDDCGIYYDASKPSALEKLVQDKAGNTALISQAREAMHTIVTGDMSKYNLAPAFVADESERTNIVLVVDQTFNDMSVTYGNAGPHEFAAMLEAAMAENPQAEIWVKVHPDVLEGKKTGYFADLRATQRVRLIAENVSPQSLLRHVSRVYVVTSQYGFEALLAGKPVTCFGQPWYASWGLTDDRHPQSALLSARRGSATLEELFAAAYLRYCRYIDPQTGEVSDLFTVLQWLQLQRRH

Compound: Nc1ccn([C@@H]2O[C@H](COP(=O)(O)O[C@@]3(C(=O)O)C[C@@H](O)[C@@H](O)[C@@H]([C@H](O)CO)O3)[C@@H](O)[C@H]2O)c(=O)n1 [CMP-Kdo]
- Kdo adduct mass increase: The native KpsC-NEc enzyme therefore appears capable of forming covalent Kdo adducts in vitro.
